Experimental data published in PMC7466295, “An Absorption and Plasma Kinetics Study of Monoterpenes Present in Mastiha Oil in Humans” (Foods, 2020).

Columns and labels:
[1] = Postprandial plasma kinetics of monoterpenes after a single dose of Mastiha Oil (GC-MS-MS); type: in vivo, human; conditions: for Time of first detection in plasma: human plasma after 1 mL MO; for Area Under Curve: 1 mL MO oral single dose, linear trapezoidal method; for concentration at 24 h: 24 h after 1 mL MO; for Cmax / Tmax: healthy males, 1 mL MO oral single dose after overnight fasting; for concentration at 4 h: 4 h after 1 mL MO
Excerpt: An open label intervention trial was designed to assess the postprandial plasma levels of the main monoterpenes present in MO and their effect in antioxidant capacity. A kinetic approach was applied. Fifty apparently healthy male adults were screened. Ten volunteers were found eligible to the study according to specific criteria (Table 1). Eligible subjects were informed about the aims, methodology, expected effect and any risk from the Information Leaflet of the study, before signing an Informed Consent. The investigator explained that participation was voluntary and participants received a copy of the signed Informed Consent.
A Thermo Ultra GC-Thermo XLS Quantum GC-MS-MS Triple Quad with a DB-5 ms 30 × 0.25 × 0.25 capillary column (Merck KGaA, Darmstadt, Germany) was used. The sample was injected using a Programmed Temperature Vaporizing (PTV) injector that allows concentration of samples, using an automated sampler. Injection volume was 1 µL.
To be able to determine low ppb levels, a GC-MS-MS technique was performed. Signal to noise improves radically compared to traditional GC-MS methods. Full scan MS-MS was first employed in analytical standards which run individually to determine the parent and daughter ions and retention times were validated with the use of analytical standards which run individually.
Initial temperature was held at 50 °C for 2 min. Then temperature was ramped to 60 °C with a rate of 5 °C/min. The temperature reached 270 °C at a rate of 7 °C/min. Injector temperature was set at 250 °C. The splitless injected volume was 1 µL. At 1.2 min the splitless valve switched.
The MS-MS conditions were as follows: Parent Ion was m/z 93 and daughter ions were 91 and 77 for all compounds. Collision energy was set at 8 V and collision gas pressure was 1.5 mTorr. MS-MS scan time was set at 0.15 s. The peak width was maintained at 0.7 amu.
For sample preparation, a 1:1 mixture of ethyl-acetate:hexane was used and equal volumes of blood plasma and extractant were put in centrifuge tubes and vortexed for 20 min. The samples were then centrifuged and filtrated before injection.
To be able to determine low ppb levels, a GC-MS-MS technique was performed, which, compared to traditional GC-MS methods, improves signal to noise values and thus sensitivity in the identification of compounds. Full scan MS-MS was first employed in analytical standards which run individually to determine the parent and daughter ions of the three terpenes and their retention times. Identification of chromatographic peaks was accomplished by using the parent ion and most abundant daughter ion of each compound and comparing the retention times with those of reference standards. For quantification, blank plasma samples (collected prior to MO administration) were spiked with standard monoterpene solutions ([…]), and were treated identically to the samples, since the standard addition method used eliminates the matrix effect. The standard monoterpene solutions were prepared in ethyl acetate in the range 2–2000 μg/L by diluting stock solutions (1 mg/mL). In all preliminary tests the average recovery for the monoterpenes studied was >80% and the detection limit was 0.02 µg/L.
The maximum concentrations of monoterpenes (Cmax) and the time intervals (Tmax) were obtained from each participant’s plasma concentration–time curve. The area under the plasma concentration–time curve (AUC) was analysed using the Linear Trapezoidal method.

[2] = design: method as in PMID 29197300; conditions: rats, oral administration; cited from earlier work
[3] = male, oral, human plasma, mean ± SEM

Row | SMILES | Time of first detection in plasma [1] | Area Under Curve ([1]; human plasma, mean ± SEM) | concentration at 0.5 h ([1]; male, oral, human plasma, 0.5 h after 1 mL MO, mean ± SEM) | concentration at 2 h ([1]; male, oral, human plasma, 2 h after 1 mL MO, mean ± SEM) | concentration at 24 h [1, 3] | Cmax ([1]; male, human plasma, mean ± SEM) | Tmax ([1]; male, human plasma, mean ± SEM) | concentration at 4 h [1, 3] | Time at which bioavailable in plasma [2] | Time of peak concentration in plasma [2]
1 | C=CC(=C)CCC=C(C)C [Myrcene, myrcene] | 0.5 h | 15318.0 ± 7313.3 ng·h/mL | 775 ± 64 ng/mL | 906 ± 44.6 ng/mL | 648 ± 60.3 ng/mL | 967 ± 89.7 ng/mL | 2.2 ± 1.7 h |  |  | 
2 | CC1=CCC2CC1C2(C)C (stereo not drawn) [α-Pinene, α-pinene] | 0.5 h | 7865.2 ± 5547.3 ng·h/mL |  |  | 80.6 ± 7.3 ng/mL | 915 ± 551 ng/mL | 3.8 ± 1.2 h | 839 ± 189 ng/mL | 0.17 h | 2.5 h
3 | C=C1CCC2CC1C2(C)C (stereo not drawn) [β-Pinene, β-pinene] | 0.5 h | 164.0 ± 110.8 ng·h/mL |  |  | 2.1 ± 0.3 ng/mL | 18 ± 10.7 ng/mL | 3.6 ± 0.9 h | 16.7 ± 3.5 ng/mL |  | 
